From patent US20240344059A1, “Gene Editing of Regulatory Elements” (Vertex Pharmaceuticals Incorporated, priority 2021, published 2024)

How the values were obtained:
[1] = system: CUG foci in myonuclei of DM1 patient myotubes; assay: FISH staining of CUG RNA foci (SaCas9/SluCas9 sgRNA pairs); assay type: cell-based, human; set-up: average Foci reduction: concentration or dose not given beside the values; settings: for average Foci reduction: myonuclei of DM1 patient myotubes
Experimental: Primary myotubes were fixed for 15 min with 4% paraformaldehyde (PFA) and washed five times with 1×PBS for 5 min each at room temperature. Before staining, cells were permeabilized with 0.5% triton X-100 in 1×PBS for 5 min at room temperature, and then washed with 30% formamide and 2× saline-sodium citrate (SSC) mixture for 10 min at room temperature. Cells were then stained with 1 ng/μL of Cy3-PNA(CAG)5 probe (PNA Bio, F5001) diluted in 30% formamide, 2×SSC, 2 μg/mL BSA, 66 μg/mL yeast tRNA, and 2 mM vanadyl complex for 15 min at 80° C. Following probe staining, cells were then washed in 30% formamide and 2×SSC mixture for 30 min at 60° C., then washed in 30% formamide and 2×SSC mixture for 30 min at 55° C., and then washed in 1×SSC solution for 10 min at room temperature, and finally washed in 1×PBS for 10 min at room temperature. For staining of myotube nuclei, cells were stained with anti-Myogenin antibody diluted in 1% bovine serum albumin (BSA) for overnight at 4° C. and washed twice with 1×PBS for 5 min each at room temperature. Cells were then incubated with the secondary antibody goat anti-rabbit Alexa 488 (Thermo Fisher, A32731) diluted in 1% BSA for 1 hr at room temperature and washed twice with 1×PBS for 5 min each at room temperature. Next, cells were stained with Hoechst solution (Thermo Fisher, H3569) at 0.1 mg/ml for 5 min and washed once with 1×PBS for 5 min. PBS was aspirated and fresh 100 μl of fresh PBS was added to each well. High-throughput acquisition of images was completed with the ImageXpress Micro Confocal High-Content Imaging System (Molecular Devices). RNA foci quantifications were accomplished with a customized analysis module of the MetaXpress program (Molecular Devices).
Each sgRNA pair consisting of one upstream sgRNA and one downstream sgRNA were assembled with recombinant SaCas9 or SluCas9 protein, respectively, into a ribonucleoprotein (RNP) complex and delivered into primary DM1 patient myoblasts with Amaxa 4D-Nucleofector. Post nucleofection, myoblasts were divided into 6 groups and were treated with DMSO (Groups 1-3) or 3 μM of DNA-dependent Protein Kinase Inhibitor (DNA-PKi) Compound 6 (Group 4-6) for 48 hrs. DNA-PKi was used to boost the excision efficiency and to better understand the contribution of E-boxes to DMPK transcription. 72 hrs post nucleofection, myoblasts from Groups 1 and 4 were collected for genomic DNA isolation, whereas the rest of the groups were subjected to myogenic differentiation to form myotubes. The myotubes were collected on Day 15 post nucleofection (Day 12 post differentiation) for mRNA isolation (Group 2 and 5) and RNA foci staining (Groups 3 and 6) (FIG. 9).

DMPK mRNA = DMPK mRNA expression by ddPCR (SaCas9/SluCas9 sgRNA pairs); assay type: cell-based, human; settings: DM1 myotubes, 3 μM DNA-PKi Compound 6 for 48 h
Excerpt: mRNA of DM1 myotubes was isolated with the Kingfisher Flex purification system (Thermal Fisher) in 96-well format following the manufacturer's instruction. cDNA was synthesized with SuperScript™ IV VILO™ Master Mix with ezDNase™ Enzyme (Thermal Fisher) following mRNA isolation.
The primers and probes of ddPCR for hDMPK and GAPDH were pre-designed by Fisher Scientifics qPCR assays (Hs00266705_g1 and Hs01094329_m1). For DMPK expression, one target primer/probe set was used to detect DMPK expression levels, and one reference primer/probe set was used to detect GAPDH expression levels. The 24 μL of ddPCR reaction consisted of 12 μL of Supermix for Probes (no dUTP) (Bio-Rad Laboratories), 1 μL of Reference primers mix (21.6 μM), 1 μL of Reference probe (6 μM), 1 μL of Target primers mix (21.6 μM), 1 μL of Target probe (6 μM), 2 μL of H2O and 6 μL of sample genomic DNA. Droplets were generated using probe oil with the QX200 Droplet Generator (Bio-Rad Laboratories). […] The cycled plate was then transferred and read in the FAM and HEX channels using the Bio-Rad QX200 Droplet Reader (Bio-Rad Laboratories). ddPCR analysis was performed with the Bio-Rad QuantaSoft Pro Software. […]

[2] = system: E-boxes within intron 1 of human DMPK gene; assay: PCR, TapeStation and ICE verification of E-box excision (SaCas9/SluCas9 RNP); assay type: cell-based; settings: DM1 patient myoblasts, 3 μM DNA-PKi Compound 6 for 48 h, TapeStation and ICE analysis
Excerpt: Primary healthy myoblasts (P01431-18F) and DM1 patient myoblasts (03001-32F) were obtained from Cook MyoSite. Myoblasts were maintained in myoblast growth medium consisted of Myotonic™ Basal Medium (Cook Myosite, MB-2222) and Myotonic™ Growth Supplement (Cook Myosite, MS-3333) and purified with EasySep Human CD56 Positive Selection Kit II (StemCell Tech, 17855) following the manufacturer's instruction. Purified myoblasts were then banked in liquid nitrogen tank until 3-4 days before nucleofection.
The RNPs were assembled with either recombinant SaCas9 protein (Aldevron) or SluCas9 (Aldevron) and chemically modified sgRNAs (Synthego) at a ratio of 1:3 (protein:sgRNA). Specifically, SaCas9 RNPs complexes were first assembled for individual sgRNAs with 20 pmol of SaCas9 protein and 60 pmol of sgRNAs in 5 μL of P5 Nucleofector Solution. SluCas9 RNPs complexes were first assembled for individual sgRNAs with 15 pmol of SluCas9 and 45 pmol of sgRNAs in 5 μL of P5 Nucleofector Solution. […]
Genomic DNA of DM1 myoblasts was isolated with the Kingfisher Flex purification system (Thermal Fisher) in 96-well format following the manufacturer's instruction. […] The PCR products were analyzed by gel electrophoresis. […]

[3] = system: CUG RNA foci in primary DM1 patient myoblasts / myotubes; assay: FISH staining of CUG RNA foci (SpCas9 sgRNA pairs); assay type: cell-based, human; settings: DM1 patient myotubes nucleofected with SpCas9 sgRNA pairs, Group 5 vs Group 6
Experimental: Primary myoblasts were fixed for 15 min with 4% paraformaldehyde (PFA) and washed five times with 1×PBS for 10 min each at room temperature. Before staining, cells were permeabilized with 0.5% triton X-100 in 1×PBS for 5 min at room temperature, and then washed with 30% formamide and 2× saline-sodium citrate (SSC) mixture for 10 min at room temperature. Cells were then stained with 1 ng/μL of Cy3-PNA(CAG)5 probe (PNA Bio, F5001) diluted in 30% formamide, 2×SSC, 2 μg/mL BSA, 66 μg/mL yeast tRNA, and 2 mM vanadyl complex for 15 min at 80° C. Following probe staining, cells were then washed in 30% formamide and 2×SSC mixture for 30 min at 42° C., then washed in 30% formamide and 2×SSC mixture for 30 min at 37° C., and then washed in 1×SSC solution for 10 min at room temperature, and finally washed in 1×PBS for 10 min at room temperature. For staining of myotube nuclei, cells were stained with anti-Myogenin antibody diluted in 1% bovine serum albumin (BSA) for overnight at 4° C. and washed twice with 1×PBS for 10 min each at room temperature. Cells were then incubated with the secondary antibody goat anti-rabbit Alexa 647 (Thermo Fisher, A32728) diluted in 1% BSA for 1 hr at room temperature and washed twice with 1×PBS for 10 min each at room temperature. […] RNA foci quantifications were accomplished with a customized analysis module of the MetaXpress program (Molecular Devices). […]

sluU64D34: control CTG repeat excision SluCas9 sgRNA pair, SEQ ID NOs 1497 and 1498 (guide 1 GGGGCTCGAAGGGTCCTTGTAG; guide 2 CGCGCCAGACGCTCCCCAGAGC; listed as DNA, chemistry not given here) [reference compound]
average Foci reduction [1]: ~50%

SaU1DI: SaCas9 sgRNA pair SaU1 + SaD1, SEQ ID NOs 1300/1305, delivered as RNP (guide 1 ATGGCCTCTCTGCACCCCGCCT; guide 2 CTGGTTCTCCCACAGGGCCCGC; delivered as SaCas9 RNP, further chemistry not given here)
average Foci reduction [1]: ~50%

sluU3D3: SluCas9 sgRNA pair SluU3 + SluD3, delivered as RNP (guide 1 TCTCTGCACCCCGCCTCAGGGT; guide 2 CTGCGATCCAGGAGGGACAACT; delivered as SaCas9 RNP, further chemistry not given here)
average Foci reduction [1]: ~50%

saU5D1: SaCas9 sgRNA pair SaU5 + SaD1, SEQ ID NOs 1304/1305, delivered as RNP (guide 1 CCATAGAGCCCACTTTTGGGGG; guide 2 CTGGTTCTCCCACAGGGCCCGC; delivered as SaCas9 RNP, further chemistry not given here)
average Foci reduction [1]: ~50%

SaU3D1: SaCas9 sgRNA pair SaU3 + SaD1, SEQ ID NOs 1302/1305, delivered as RNP (guide 1 TCTCTGCACCCCGCCTCAGGGT; guide 2 CTGGTTCTCCCACAGGGCCCGC; delivered as SaCas9 RNP, further chemistry not given here)
average Foci reduction [1]: ~50%

Cc1ccnc(N[C@H]2CC[C@@H](Oc3cc(N4CCOCC4)cc4nonc34)CC2)n1 [Compound 6]
hDMPK mRNA reduction, DNA-Pki treatment group versus DMSO group (DMPK mRNA): more dramatic hDMPK mRNA reduction | expected excision, DNA-PKi group compared to the vehicle group [2]: more apparent expected excision | foci-free myonuclei, DNA-PKi-treated versus vehicle-treated [3]: substantially higher | further average foci number reduction in myonuclei by DNA-PKi ([1]; DM1 patient myotubes, DNA-PKi group versus DMSO group): no further average foci number reduction

sluU3D2: SluCas9 sgRNA pair SluU3 + SluD2, delivered as RNP (guide 1 TCTCTGCACCCCGCCTCAGGGT; guide 2 GAAGAACCCAAAGTTGTCCCTC; delivered as SaCas9 RNP, further chemistry not given here)
average Foci reduction [1]: ~50%

SaU3D3: SaCas9 sgRNA pair SaU3 + SaD3, SEQ ID NOs 1302/1307, delivered as RNP (guide 1 TCTCTGCACCCCGCCTCAGGGT; guide 2 CTGCGATCCAGGAGGGACAACT; delivered as SaCas9 RNP, further chemistry not given here)
average Foci reduction [1]: ~50%
